# Reference: patent US10562842B2, “Use of polyaminoisoprenyl derivatives in antibiotic or antiseptic treatment” (UNIVERSITE D'AIX-MARSEILLE, priority 2011, dated 2020)
# What was measured:
# Ea289ΔacrB (Ea294) = test: MIC of antibiotics ± test compound (MIC ratio), micro-broth dilution; assay type: cell-based, Enterobacter aerogenes; settings: compound at MIC/4; for MIC ratio Chloramphenicol E. aerogenes Ea294 / MIC ratio Doxycycline E. aerogenes Ea294 / MIC ratio Nalidixic acid E. aerogenes Ea294: Example 4
# Description: (§1) The Enterobacter aerogenes Ea289 strain is a Kans derivative of the MDR clinical isolate Ea27, the acrB mutant, EaEP294, was constructed from Ea289. Multidrug-resistant Salmonella enterica serovar Typhimurium DT104 strains (BN10055) was isolated from cattle in France, the isogenic acrB derivative mutant, BN10055ΔacrB, was constructed from BN10055. Strains were maintained at −80° C. in 25% (v/v) glycerol for cryoprotection. Bacteria were routinely grown in Mueller-Hinton (MH) broth at 37° C.
# (§2) Susceptibilities to antibiotics and compounds were determined in microplates by broth dilution method, as previously described. Minimal Inhibitory Concentrations (MICs) were determined with an inoculum of 10^6 CFU in 200 μL of MH broth containing two-fold serial dilutions of each drug. […] All MIC determinations were repeated at least three times in independent experiments.
# (§3) […] All MIC determinations were repeated at least three times in independent experiments. The MIC ratio corresponds to the ratio of the MIC of an antibiotic alone to the MIC of the same antibiotic in the presence of the tested compound (at MIC/4).
# (§4) For reminder, the MIC ratio corresponds to the ratio of the MIC of the assessed antibiotic alone to the MIC of the same antibiotic in the presence of the tested compound (at MIC/4).
# [1] = test system: strain IV2571418 - Escherichia coli pig (resistant); test: MIC of antibiotics in the presence and absence of test compound, veterinary strains; assay type: cell-based; set-up: MIC for strain IV2571418, Doxycycline in the presence of test compound: unit not given beside the values; settings: compound at the Concentration (μM) (4-50)
# Description: For each strain and each antibiotic, the MICs were determined in the presence and in the absence of one test compound.
# AG100 [2] = test: MIC of antibiotics ± test compound (MIC ratio), micro-broth dilution; assay type: cell-based, Escherichia coli; settings: compound at MIC/4; Example 4
# Description: as §2
# (§5) The MICs of chloramphenicol±test compounds (MIC/4) were determined by the micro-broth dilution method (9). All MIC determinations were repeated at least three times in independent experiments. The MIC ratio corresponds to the ratio of the MIC of an antibiotic alone to the MIC of the same antibiotic in the presence of the tested compound (at MIC/4).
# as §4
# BN10055ΔacrB = test: as above; assay type: cell-based, Salmonella enterica serovar Typhimurium; settings: compound at MIC/4; for MIC ratio Chloramphenicol S. enterica BN1005ΔacrB / MIC ratio Doxycycline S. enterica BN1005ΔacrB / MIC ratio Nalidixic acid S. enterica BN1005ΔacrB: Example 4
# Description: as §1, §2, §3, §4
# [3] = test system: Salmonella Thyphimurium MDR BN10055; test: as above; assay type: cell-based, Salmonella enterica serovar Typhimurium; settings: compound at MIC/4; for MIC ratio (*) on BN10055 Chl: chloramphenicol; for MIC ratio Chloramphenicol S. enterica BN10055 / MIC ratio Doxycycline S. enterica BN10055 / MIC ratio Nalidixic acid S. enterica BN10055: Example 4; for MIC ratio (*) on BN10055 Dox: doxycycline; for MIC ratio (*) on BN10055 Nal: nalidixic acid
# Description: as §1, §2, §3, §4
# Ea27 = test: MIC by broth dilution (intrinsic MIC); assay type: cell-based; settings: Klebsiella aerogenes; Enterobacter Ea27
# Description: as §2
# AB1 = test: MIC by broth dilution (intrinsic MIC); assay type: cell-based; settings: Acinetobacter baumannii
# Description: as §2
# ATCC 13048 = test: MIC by broth dilution (intrinsic MIC); assay type: cell-based; settings: Klebsiella aerogenes, ATCC13048; Enterobacter ATCC 13048
# Description: as §2
# PA124 [4] = test: MIC by broth dilution (intrinsic MIC); assay type: cell-based; settings: Pseudomonas aeruginosa
# Description: as §2
# PAO1 [5] = test: MIC by broth dilution (intrinsic MIC); assay type: cell-based; settings: Pseudomonas aeruginosa
# Description: as §2
# ATCC 19606 = test: MIC by broth dilution (intrinsic MIC); assay type: cell-based; settings: Acinetobacter baumannii, ATCC19606; Acinetobacter ATCC 19606
# Description: as §2
# AG100 [6] = test: MIC by broth dilution (intrinsic MIC); assay type: cell-based; settings: Escherichia coli AG100
# Description: as §2
# CHO-K1 cells = assay type: cell-based; settings: for proliferation index, all the tested concentrations: Chinese hamster, 3 h
# Description: Genotoxicity of compounds 11 and 14 was assessed by micronucleus test. The micronucleus test was performed on CHO-K1 cells with and without metabolic activation. Metabolic activation is obtained by adding in the medium S9 mix. S9 mix contains NADP, G6P and S9 fraction which is a crude preparation of enzymes obtained from the homogenized liver of rats. Briefly, CHO-K1 cells were cultured in Mc Coy's medium 5A and then transferred in the wells of Lab-Tek chamber slides at a concentration of 100 000 cells/ml. The cells were incubated during 24 h at 37° C. at CO2 (5%). The culture medium was replaced by Mc Coy's 5A medium comprising 10% per volume of S9 mix. The test compounds were added at increased concentrations. After being incubated during three hours at 37° C., the cells were rinsed with phosphate buffer (PBS) and then cultured in Mac Coy's 5A medium containing 3 μg/ml cytochalasine B. After an incubation of 21 hours at 37° C., the cells were rinsed, fixed with methanol and coloured with Giemsa 10% during 20 minutes. For each set of assays, the positive control was 0.05 μg/ml of mitomycine C or 5 μg/ml of benzo-a-pyrene. The negative control was culture medium containing 5% of PBS. The stained cells were then analysed by microscopy for the presence of micronuclei. The proliferation index was determined as follows: IP=(2×BIN+MON)/500. MON: number of mononucleated cells and BIN: number of binucleated cells.
# [7] = Tolerance in mice, intraperitoneal route; assay type: in vivo; settings: day 2, Compound 5 8.8 mg/kg, 8 1.46 mg/kg, 11 0.45 mg/kg, 14 0.35 mg/kg, 12 6.3 mg/kg
# Description: Mice were administered with increasing doses of test compounds by intraperitoneal route.
# The mice were sacrificed on day 2 after the injection of the test compound and autopsied. No morphological anomaly was observed. Liver, lung, kidney and intestine of each mouse were fixed and analysed.
# Ea294 = test: MIC by broth dilution (intrinsic MIC); assay type: cell-based, Enterobacter aerogenes; settings: Klebsiella aerogenes, read-out: intrinsic MIC, Ea294
# Description: as §2
# PA124 [8] = test: MIC of antibiotics ± test compound (MIC ratio), micro-broth dilution; assay type: cell-based, Pseudomonas aeruginosa; settings: compound at MIC/4
# Description: as §2, §5, §4
# PAO1 [9] = test: as above; assay type: cell-based, Pseudomonas aeruginosa; settings: compound at MIC/4
# Description: as §2, §5, §4
smiles,measurement,setting,value
"CC(C)=CCCC(C)=CCNCCCN(CCCN)CCCN (racemic) [Compound 11, {3-[Bis-(3-amino-propyl)-amino]-propyl}-(3,7-dimethyl-octa-2,6-dienyl)-amine]",MIC ratio(*) on Ea289ΔacrB Chl,"Ea289ΔacrB (Ea294); chloramphenicol, Set 1",16
same,MIC ratio Chloramphenicol E. aerogenes Ea294,Ea289ΔacrB (Ea294),16
same,MIC ratio Doxycycline E. aerogenes Ea294,Ea289ΔacrB (Ea294),4
same,MIC ratio Nalidixic acid E. aerogenes Ea294,Ea289ΔacrB (Ea294),8
same,MIC ratio(*) on Ea289ΔacrB Ery,"Ea289ΔacrB (Ea294); erythromycin, Set 1",16
same,MIC ratio(*) on Ea289ΔacrB Nal,"Ea289ΔacrB (Ea294); nalidixic acid, Set 1",8
same,"MIC for strain IV2571418, Doxycycline in the presence of test compound",[1],2
same,"MIC for strain IV2571418, Tylosine in the presence of test compound",[1],4
same,MIC ratio Chloramphenicol E. Coli AG100,AG100 [2],16
same,MIC ratio Doxycycline E. Coli AG100,AG100 [2],>32
same,MIC ratio Oxacillin E. Coli AG100,AG100 [2],16
same,MIC ratio(*) on BN10055ΔacrB Chl,"BN10055ΔacrB; chloramphenicol, Set 1",2
same,MIC ratio Chloramphenicol S. enterica BN1005ΔacrB,BN10055ΔacrB,2
same,MIC ratio Doxycycline S. enterica BN1005ΔacrB,BN10055ΔacrB,2
same,MIC ratio Nalidixic acid S. enterica BN1005ΔacrB,BN10055ΔacrB,2
same,MIC ratio(*) on BN10055ΔacrB Ery,"BN10055ΔacrB; erythromycin, Set 1",8
same,MIC ratio(*) on BN10055ΔacrB Nal,"BN10055ΔacrB; nalidixic acid, Set 1",2
same,MIC ratio (*) on BN10055 Chl,[3]; Set 1,16
same,MIC ratio (*) on BN10055 Chl,[3]; Set 2,16
same,MIC ratio Chloramphenicol S. enterica BN10055,[3],16
same,MIC ratio Doxycycline S. enterica BN10055,[3],16
same,MIC ratio Nalidixic acid S. enterica BN10055,[3],128
same,MIC ratio (*) on BN10055 Dox,[3]; Set 2,16
same,MIC ratio(*) on BN10055 Ery,"[3]; erythromycin, Set 1",8
same,MIC ratio (*) on BN10055 Nal,[3]; Set 1,128
same,MIC ratio (*) on BN10055 Nal,[3]; Set 2,128
same,MIC,Ea27,31 µM
same,MIC,AB1,31 µM
same,MIC,ATCC 13048,31 µM
same,MIC,PA124 [4],62 µM
same,MIC,PAO1 [5],62 µM
same,MIC,ATCC 19606,62 µM
same,MIC,AG100 [6],31 µM
same,genotoxicity in vitro (micronucleus test),CHO-K1 cells,not genotoxic in vitro
same,"proliferation index, all the tested concentrations",CHO-K1 cells,higher than 50%
same,"tissue anomaly (liver, lung, kidney, intestine)",[7],no significant tissue anomaly
same,MIC,Ea294,15 µM
same,MIC ratio Cefepime Pseudomonas aeruginosa PA124,PA124 [8],1
same,MIC ratio Chloramphénicol Pseudomonas aeruginosa PA124,PA124 [8],128
same,MIC ratio Doxycycline Pseudomonas aeruginosa PA124,PA124 [8],>32
same,MIC ratio Tetracycline Pseudomonas aeruginosa PA124,PA124 [8],8
same,MIC ratio Cefepime Pseudomonas aeruginosa PAO1,PAO1 [9],1
same,MIC ratio Doxycycline Pseudomonas aeruginosa PAO1,PAO1 [9],>16
"CC(C)=CCC/C(C)=C/CC/C(C)=C/CNCCCN(C)CCCN [Compound 14, {3-[(3-Amino-propyl)-methyl-amino]-propyl}-((2E,6E)-3,7,11-trimethyl-dodeca-2,6,10-trienyl)-amine]",MIC ratio Chloramphenicol E. aerogenes Ea294,Ea289ΔacrB (Ea294),2
same,MIC ratio Doxycycline E. aerogenes Ea294,Ea289ΔacrB (Ea294),4
same,MIC ratio Nalidixic acid E. aerogenes Ea294,Ea289ΔacrB (Ea294),4
same,"MIC for strain IV2571418, Doxycycline in the presence of test compound",[1],2
same,"MIC for strain IV2571418, Tylosine in the presence of test compound",[1],4
same,MIC ratio Chloramphenicol E. Coli AG100,AG100 [2],16
same,MIC ratio Doxycycline E. Coli AG100,AG100 [2],>32
same,MIC ratio Oxacillin E. Coli AG100,AG100 [2],16
same,MIC ratio Chloramphenicol S. enterica BN1005ΔacrB,BN10055ΔacrB,2
same,MIC ratio Doxycycline S. enterica BN1005ΔacrB,BN10055ΔacrB,2
same,MIC ratio Nalidixic acid S. enterica BN1005ΔacrB,BN10055ΔacrB,4
same,MIC ratio (*) on BN10055 Chl,[3]; Set 2,16
same,MIC ratio Chloramphenicol S. enterica BN10055,[3],16
same,MIC ratio Doxycycline S. enterica BN10055,[3],64
same,MIC ratio Nalidixic acid S. enterica BN10055,[3],128
same,MIC ratio (*) on BN10055 Dox,[3]; Set 2,64
same,MIC ratio (*) on BN10055 Nal,[3]; Set 2,128
same,MIC,Ea27,31 µM
same,MIC,AB1,62 µM
same,MIC,ATCC 13048,31 µM
same,MIC,PA124 [4],250 µM
same,MIC,PAO1 [5],250 µM
same,MIC,ATCC 19606,62 µM
same,MIC,AG100 [6],62 µM
same,genotoxicity in vitro (micronucleus test),CHO-K1 cells,not genotoxic in vitro
same,"proliferation index, all the tested concentrations",CHO-K1 cells,higher than 50%
same,"tissue anomaly (liver, lung, kidney, intestine)",[7],no significant tissue anomaly
same,MIC,Ea294,15 µM
same,MIC ratio Cefepime Pseudomonas aeruginosa PA124,PA124 [8],1
same,MIC ratio Chloramphénicol Pseudomonas aeruginosa PA124,PA124 [8],128
same,MIC ratio Doxycycline Pseudomonas aeruginosa PA124,PA124 [8],>32
same,MIC ratio Tetracycline Pseudomonas aeruginosa PA124,PA124 [8],8
same,MIC ratio Cefepime Pseudomonas aeruginosa PAO1,PAO1 [9],1
same,MIC ratio Doxycycline Pseudomonas aeruginosa PAO1,PAO1 [9],>16
